From patent US7767659B2, “Synthesis of naturally occurring ecteinascidins and related compounds” (Pharma Mar, S.A., priority 2002, dated 2010) come the findings set out here.

One data set relates to K-562. Nature of the data set: Inhibition of cells growth by colorimetric assay (SRB). Conditions: Homo sapiens, K562, 48 h, read-out: GI50 K562. The procedure:
(§1) This form of the assay employs 96 well cell culture microplates of 9 mm diameter (Faircloth, 1988; Mosmann, 1983). Most of the cell lines are obtained from American Type Culture Collection (ATCC) derived from different human cancer types.
(§2) Cells are maintained in RPMI 1640 10% FBS, supplemented with 0.1 g/l penicillin and 0.1 g/l streptomycin sulfate and then incubated at 37° C., 5% CO2 and 98% humidity. For the experiments, cells were harvested from subconfluent cultures using trypsin and resuspended in fresh medium before plating.
(§3) Cells are seeded in 96 well microtiter plates, at 5×10^3 cells per well in aliquots of 195 μl medium, and they are allowed to attach to the plate surface by growing in drug free medium for 18 hours. Afterward, samples are added in aliquots of 5 μl in a ranging from 10 to 10^−8 μg/ml, dissolved in DMSO/EtOH/PBS (0.5:0.5:99). After 48 hours exposure, the antitumor effect are measured by the SRB methodology: cells are fixed by adding 50 μl of cold 50% (wt/vol) trichloroacetic acid (TCA) and incubating for 60 minutes at 4° C. Plates are washed with deionized water and dried. One hundred μl of SRB solution (0.4% wt/vol in 1% acetic acid) is added to each microtiter well and incubated for 10 minutes at room temperature. Unbound SRB is removed by washing with 1% acetic acid. Plates are air dried and bound stain is solubilzed with Tris buffer. Optical densities are read on a automated spectrophotometric plate reader at a single wavelength of 490 nm.
(§4) The values for mean +/− SD of data from triplicate wells are calculated. Some parameters for cellular responses can be calculated: GI=growth inhibition, TGI=total growth inhibition (cytostatic effect) and LC=cell killing (cytotoxic effect).

The test system of the next data set is LNCaP. The data set is described as above. Conditions: Homo sapiens, LNCaP, 48 h, read-out: GI50 LNCAP. The procedure: as §1, §2, §3, §4
The next data set has as its system A-549. In words: cells. As for the experimental part: as §1, §2, §3, §4
A further data set relates to HT-29. Nature of the data set: cells. As for the experimental part: as §1, §2, §3, §4
Setting [1] is: Homo sapiens, A549, 48 h, read-out: A549 GI50.
The mark [2] stands for this setting: Homo sapiens, A549, 48 h, read-out: A549 LC50.
Setting [3] is: Homo sapiens, A549, 48 h, read-out: A549 TGI.
Setting [4] is: Homo sapiens, HT-29, 48 h, read-out: HT29 GI50.
Where [5] appears, read: Homo sapiens, HT-29, 48 h, read-out: HT29 LC50.
Where [6] appears, read: Homo sapiens, HT-29, 48 h, read-out: HT29 TGI.
[7] abbreviates: Homo sapiens, A549, 48 h, read-out: GI50 A549.
Where [8] appears, read: Homo sapiens, A549, 48 h, read-out: LC50 A549.
[9] abbreviates: Homo sapiens, A549, 48 h, read-out: TGI A549.
Where [10] appears, read: Homo sapiens, HT-29, 48 h, read-out: GI50 HT29.
[11] abbreviates: Homo sapiens, HT-29, 48 h, read-out: LC50 HT29.
[12] abbreviates: Homo sapiens, HT-29, 48 h, read-out: TGI HT29.

Where two headings read alike, the source gives them in different places.

Usually GI50 stands for the concentration giving 50% growth inhibition. In the case of `C=CCN1[C@@H]2c3c(cc(C)c(OC)c3OCOCCOC)C[C@H]1[C@H](C#N)N1C2[C@@H]2SC[C@@H](NC(=O)OC(C)(C)C)C(=O)OC[C@H]1c1c3c(c(C)c(OC(C)=O)c12)OCO3` (some centres unmarked) [compound 11], the GI50 with K-562 was 4.76 µM; with LNCaP it was 5.84 µM.
As to `COCCOCOc1c(OC)c(C)cc2c1[C@@H]1C3CC4(O)C(=O)C(C)=C5OCOC5=C4[C@H](CNC(=O)[C@H](CSCC4c5ccccc5-c5ccccc54)NC(=O)OC(C)(C)C)N3[C@@H](C#N)[C@H](C2)N1C` (some centres unmarked) [compound 72], the results for the GI50 in the data set on A-549 (setting [1]) and in the data set on HT-29 (setting [4]) were 0.0519 µM and 1.04 µM, respectively. Moreover, the values for the CC50 in the data set on A-549 (setting [2]) and with HT-29 (setting [5]) were 4.15 µM and 5.19 µM, respectively. The figures for the IC (TGI) in the data set with A-549 (setting [3]) and in the data set on HT-29 (setting [6]) were 0.104 µM and 1.04 µM, respectively.
On to `COCCOCOc1c(OC)c(C)cc2c1[C@H]1N[C@@H](C2)[C@H](C#N)N2C1CC1(O)C(=O)C(C)=C3OCOC3=C1[C@@H]2CO[Si](c1ccccc1)(c1ccccc1)C(C)(C)C` (some centres unmarked) [compound 7], for which the “TGI A549” value in the data set on A-549 (A549, SRB, 48 hours exposure) was determined as 3.51E−06 Molar. In addition, the GI50 was 1.87 µM in the data set with A-549 (read-out: GI50 A549, A549, SRB, 48 hours exposure) and 0.918 µM with HT-29 (read-out: GI50 HT29, HT29, SRB, 48 hours exposure). Further, the CC50 is 6.61 µM in the data set with A-549 (read-out: LC50 A549, A549, SRB, 48 hours exposure) and 5.46 µM in the data set with HT-29 (read-out: LC50 HT29, HT29, SRB, 48 hours exposure). Further, the “TGI HT29” value in the data set with HT-29 (HT29, SRB, 48 hours exposure) is 2.40E−06 Molar.
Turning to `C=CCOc1c(C)c2c(c3c1CC1[C@H]4c5c(cc(C)c(OC)c5OCOCCOC)C[C@@H]([C@H](C#N)N1[C@H]3CNC(=O)[C@H](CSCC1c3ccccc3-c3ccccc31)NC(=O)OC(C)(C)C)N4C)OCO2` (some centres unmarked) [compound 70], the GI50 with A-549 (setting [1]) was 5.06 µM; in the data set on HT-29 (setting [4]), 10.1 µM. Also, the CC50 with A-549 (setting [2]) and in the data set with HT-29 (setting [5]) was 50.6 µM in each case. Also, the IC (TGI) in the data set with A-549 (setting [3]) was 50.6 µM; in the data set on HT-29 (setting [6]) it was 10.1 µM.
As for `C=CCN1[C@@H]2c3c(cc(C)c(OC)c3OCOCCOC)C[C@H]1[C@H](C#N)N1C2CC2(O)C(=O)C(C)=C3OCOC3=C2[C@@H]1CO[Si](c1ccccc1)(c1ccccc1)C(C)(C)C` (some centres unmarked) [compound 8], the GI50 in the data set with A-549 (setting [7]) turned out to be 11.8 µM; with HT-29 (setting [10]), 7.82 µM. Besides, the CC50 in the data set with A-549 (setting [8]) and in the data set on HT-29 (setting [11]) was 11.8 µM throughout. Moreover, the IC (TGI) in the data set on A-549 (setting [9]) and in the data set with HT-29 (setting [12]) was 11.8 µM throughout.
For the compound `COc1c(C)cc2c(c1O)[C@@H]1C3[C@@H]4SCC(N)C(=O)OC[C@@H](c5c6c(c(C)c(OC(C)=O)c54)OCO6)N3[C@@H](C#N)C(C2)N1C` (some centres unmarked) [compound 18], the GI50 with A-549 (setting [7]) was 0.161 µM; in the data set on HT-29 (setting [10]) it was 0.0804 µM. For the same compound, the CC50 was determined as 8.04 µM in the data set on A-549 (setting [8]) and 80.4 µM with HT-29 (setting [11]). The IC (TGI) in the data set with A-549 (setting [9]) and with HT-29 (setting [12]) was 0.643 µM in each case.
Regarding `COCCOCOc1c(OC)c(C)cc2c1[C@H]1N[C@@H](C2)[C@H](C#N)N2C1Cc1c(O)c(C)c3c(c1[C@@H]2CO[Si](c1ccccc1)(c1ccccc1)C(C)(C)C)OCO3` (some centres unmarked) [compound 6], the GI50 is 6.65 µM in the data set on A-549 (setting [7]) and 12.5 µM in the data set on HT-29 (setting [10]). The CC50 with A-549 (setting [8]) and in the data set on HT-29 (setting [11]) was 12.6 µM throughout. Further, the IC (TGI) in the data set on A-549 (setting [9]) and in the data set on HT-29 (setting [12]) was 12.6 µM each time.
On to `C=CCOc1c(C)c2c(c3c1CC1[C@@H]4N[C@@H](Cc5cc(C)c(OC)c(OCOCCOC)c54)[C@H](C#N)N1[C@H]3CO[Si](c1ccccc1)(c1ccccc1)C(C)(C)C)OCO2` (some centres unmarked) [compound 5], for which the 50% growth inhibitory concentration (GI50) in the data set on A-549 (setting [7]) was 0.721 µM; in the data set on HT-29 (setting [10]) it was 0.481 µM. The CC50 with A-549 (setting [8]) was determined as 8.41 µM; with HT-29 (setting [11]), 6.01 µM. Further, the IC (TGI) came out at 2.4 µM with A-549 (setting [9]) and 1.2 µM in the data set on HT-29 (setting [12]).
`C=CCOc1c(C)c2c(c3c1CC1[C@H]4c5c(cc(C)c(OC)c5O)C[C@@H]([C@H](C#N)N1[C@H]3CNC(=O)[C@H](CSCC1c3ccccc3-c3ccccc31)NC(=O)OC(C)(C)C)N4C)OCO2` (some centres unmarked) [compound 69]: the GI50 in the data set on A-549 (setting [1]) worked out at 5.57 µM; in the data set with HT-29 (setting [4]) it was 1.11 µM. In addition, the CC50 in the data set on A-549 (setting [2]) worked out at 55.7 µM; in the data set with HT-29 (setting [5]) it was 11.1 µM. The IC (TGI) in the data set on A-549 (setting [3]) stood at 22.3 µM; with HT-29 (setting [6]) it was 1.11 µM.
For the compound `COc1cc2c(cc1O)CCN[C@]21C[S+]([O-])[C@@H]2c3c(OC(C)=O)c(C)c4c(c3[C@H](COC1=O)N1C2C2c3c(cc(C)c(OC)c3O)C[C@@H]([C@@H]1C#N)N2C)OCO4` (some centres unmarked) [compound 17], the GI50 with A-549 (setting [7]) stood at 0.0229 µM; in the data set on HT-29 (setting [10]), 0.0391 µM. Besides, the CC50 in the data set with A-549 (setting [8]) amounted to 0.117 µM; with HT-29 (setting [11]), 12.7 µM. The IC (TGI) with A-549 (setting [9]) was 0.0521 µM; in the data set on HT-29 (setting [12]), 0.086 µM.
With `C=CCOc1c(C)c2c(c3c1CC1[C@H]4c5c(cc(C)c(OC)c5O)C[C@@H]([C@H](C#N)N1[C@H]3CO[Si](c1ccccc1)(c1ccccc1)C(C)(C)C)N4C)OCO2` (some centres unmarked) [compound 3], the GI50 in the data set with A-549 (setting [7]) is 4.18 µM; with HT-29 (setting [10]), 4.01 µM. Besides, the CC50 in the data set on A-549 (setting [8]) and in the data set on HT-29 (setting [11]) was 13.2 µM each time. The figures for the IC (TGI) with A-549 (setting [9]) and with HT-29 (setting [12]) were 13 µM and 12.3 µM, respectively.
For `C=CCN1[C@@H]2c3c(cc(C)c(OC)c3OCOCCOC)C[C@H]1[C@H](C#N)N1C2CC2(O)C(=O)C(C)=C3OCOC3=C2[C@@H]1CO` (some centres unmarked) [compound 9], the GI50 in the data set with A-549 (setting [7]) and in the data set with HT-29 (setting [10]) was 16.4 µM each time. Further, the CC50 in the data set on A-549 (setting [8]) and in the data set with HT-29 (setting [11]) was 16.4 µM in each case. The IC (TGI) in the data set with A-549 (setting [9]) and in the data set with HT-29 (setting [12]) was 16.4 µM each time.
As for `C=CCOc1c(C)c2c(c3c1CC1[C@H]4c5c(cc(C)c(OC)c5OCOCCOC)C[C@@H]([C@H](C#N)N1[C@H]3CO[Si](c1ccccc1)(c1ccccc1)C(C)(C)C)N4C)OCO2` (some centres unmarked) [compound 4], the results for the GI50 in the data set on A-549 (setting [7]) and with HT-29 (setting [10]) were 2.36 µM and 0.591 µM, respectively. Further, the CC50 in the data set with A-549 (setting [8]) and with HT-29 (setting [11]) was 11.8 µM each time. Further, the IC (TGI) with A-549 (setting [9]) came to 8.27 µM; with HT-29 (setting [12]), 1.18 µM.
